Blank lines part the entries; values can stand above or below the molecule they belong to.
Key:
physchem = settings: water
[1] = Dynamic Vapor Sorption (DVS), moisture cycle 0-80-0% RH; type: physicochemical
[2] = Dynamic Vapor Sorption (DVS), moisture cycles 0-90-0% RH; type: physicochemical

solubility (physchem; solubility in water): ~30 mg/mL
Structure (SMILES): CN(C)C(=O)c1cc2cnc(Nc3ccc(N4CCNCC4)cn3)nc2n1C1CCCC1.O=C(O)CCC(=O)O [non-hydrate form, succinate salt of 7-Cyclopentyl-2-(5-piperazin-1-yl-pyridin-2-ylamino)-7H-pyrrolo[2,3-d]pyrimidine-6-caboxylic acid dimethylamide]

Change In Mass (%) Hysteresis ([1]; Cycle 1, target RH 50.0%): 0.0074%
Change In Mass (%) Hysteresis ([1]; Cycle 1, target RH 60.0%): 0.0140%
Change In Mass (%) Desorption ([1]; Cycle 1, target RH 80.0%): 0.5200%
moisture absorbed ([1]; at 80% RH (0 to 80 to 0% RH cycle)): up to 0.5%
physical form after exposure ([1]; upon exposure to 80% RH (XRPD)): stability of the physical form
moisture absorbed ([2]; at 90% RH, in each cycle (0 to 90 to 0% RH, two cycles)): up to 2%
physical form after exposure ([2]; upon exposure to 90% RH (XRPD, DSC, TGA)): change in physical form
Structure (SMILES): CN(C)C(=O)c1cc2cnc(Nc3ccc(N4CCNCC4)cn3)nc2n1C1CCCC1.O=C(O)CCC(=O)O [Compound of Formula (II), 7-Cyclopentyl-N,N-dimethyl-2-(5-(piperazin-1-yl)pyridin-2-ylamino)-7H-pyrrolo[2,3-d]pyrimidine-6-carboxamide succinate]

solubility (physchem; solubility): < 0.5 mg/mL
Structure (SMILES): CN(C)C(=O)c1cc2cnc(Nc3ccc(N4CCNCC4)cn3)nc2n1C1CCCC1.O=C(O)CCC(=O)O [hydrate form, succinate salt of 7-Cyclopentyl-2-(5-piperazin-1-yl-pyridin-2-ylamino)-7H-pyrrolo[2,3-d]pyrimidine-6-carboxylic acid dimethylamide]
